# According to ChEMBL document CHEMBL4396952, “Xanthone, benzophenone and bianthrone derivatives from the hypersaline lake-derived fungus Aspergillus wentii” (Bioorg Med Chem, 2019):
# Active and inactive are the calls of the source. The rule behind the calls is not given here.
# Legend:
# Acinetobacter baumannii = assay: Antibacterial activity against Acinetobacter baumannii; assay type: functional, organism-based
# L5178Y [1] = assay: Cytotoxicity against mouse L5178Y cells at 10 uM; assay type: functional, cell-based
# Klebsiella pneumoniae = assay: Antibacterial activity against Klebsiella pneumoniae; assay type: functional, organism-based
# Pseudomonas aeruginosa = assay: Antibacterial activity against Pseudomonas aeruginosa; assay type: functional, organism-based
# A2780S [2] = assay: Cytotoxicity against human A2780S cells at 10 uM; assay type: functional, cell-based
# [3] = test system: Mycobacterium tuberculosis; assay: Antitubercular activity against Mycobacterium tuberculosis H37Rv; assay type: functional, organism-based
# A2780S [4] = assay: Cytotoxicity against human A2780S cells at 10 ug/ml; assay type: functional, cell-based
# Staphylococcus aureus = assay: Antibacterial activity against Staphylococcus aureus ATCC 29213; assay type: functional, organism-based
# Enterococcus faecium = assay: Antibacterial activity against Enterococcus faecium; assay type: functional, organism-based
# A2780S [5] = assay: Cytotoxicity against human A2780S cells at 100 uM; assay type: functional, cell-based
# Klebsiella aerogenes = assay: Antibacterial activity against Enterobacter aerogenes; assay type: functional, organism-based
# Escherichia coli = assay: Antibacterial activity against Escherichia coli; assay type: functional, organism-based
# L5178Y [6] = assay: Cytotoxicity against mouse L5178Y cells at 100 uM; assay type: functional, cell-based
# L5178Y [7] = assay: Cytotoxicity against mouse L5178Y cells at 10 ug/ml; assay type: functional, cell-based
# [8] = Stability of the compound by HPLC analysis; assay type: physicochemical
Structure (SMILES),Activity (Acinetobacter baumannii),Activity (L5178Y [1]),Activity (Klebsiella pneumoniae),Activity (Pseudomonas aeruginosa),Activity (A2780S [2]),Activity [3],Activity (A2780S [4]),Activity (Staphylococcus aureus),Activity (Enterococcus faecium),Activity (A2780S [5]),Activity (Klebsiella aerogenes),Activity (Escherichia coli),Activity (L5178Y [6]),Activity (L5178Y [7]),Stability [8]
Cc1cc(O)cc(O)c1-c1cc(=O)c2c(O)cc(O)cc2o1,inactive,inactive,inactive,inactive,inactive,inactive,inactive,inactive,inactive,inactive,inactive,inactive,inactive,inactive,–
COc1cc(O)c2c(c1)[C@@H]([C@H]1c3cc(O)cc(O)c3C(=O)c3c1cc(C)c(C(=O)OC[C@@H](O)CO)c3O)c1cc(C)cc(O)c1C2=O,–,–,–,–,–,–,–,–,–,–,–,–,–,–,Unstable
Cc1cc2c(c(O)c1C(=O)OC[C@@H](O)CO)C(=O)c1c(O)cc(O)cc1C2=O,inactive,inactive,inactive,inactive,inactive,inactive,inactive,inactive,inactive,inactive,inactive,inactive,inactive,inactive,–
COc1cc(OC)c2c(c1)C(=O)c1cc(C)cc(O)c1C2=O,–,inactive,–,–,inactive,inactive,inactive,–,–,inactive,–,–,inactive,inactive,–
Cc1cc2cc(O)cc(O)c2c2oc(=O)cc(O)c12,inactive,inactive,inactive,inactive,inactive,inactive,inactive,inactive,inactive,inactive,inactive,inactive,inactive,inactive,–
COc1cc(OC)c2c(c1)[C@H]([C@H]1c3cc(C)cc(O)c3C(=O)c3c(OC)cc(O)cc31)c1cc(C)cc(O)c1C2=O,–,–,–,–,–,–,–,–,–,–,–,–,–,–,Unstable
COC(=O)c1cc(O)cc(OC)c1C(=O)c1c(O)cc(C)cc1O,inactive,inactive,inactive,inactive,inactive,inactive,inactive,inactive,inactive,inactive,inactive,inactive,inactive,inactive,–
COc1cc(O)c2c(c1)[C@@H]([C@@H]1c3cc(O)cc(O)c3C(=O)c3c1cc(C)c(C(=O)OC[C@@H](O)CO)c3O)c1cc(C)cc(O)c1C2=O,–,–,–,–,–,–,–,–,–,–,–,–,–,–,Unstable
COC(=O)c1cc(C)c(C(=O)OC[C@@H](O)CO)c2oc3cc(O)cc(O)c3c(=O)c12,–,inactive,–,–,–,inactive,–,–,–,–,–,–,inactive,inactive,–
COc1cc(OC)c2c(c1)C(C1c3cc(O)cc(O)c3C(=O)c3c1cc(C)c(C(=O)OC[C@@H](O)CO)c3O)c1cc(C)cc(O)c1C2=O (stereo partly specified),–,–,–,–,–,–,–,–,–,–,–,–,–,–,Unstable
COc1cc(O)c2c(c1)C(C1c3cc(C)cc(O)c3C(=O)c3c(O)cc(OC)cc31)c1cc(C)cc(O)c1C2=O (stereo unspecified),–,–,–,–,–,–,–,–,–,–,–,–,–,–,Unstable
COC(=O)c1cc(O)cc(O)c1C(=O)c1c(O)cc(C)cc1O,inactive,inactive,inactive,inactive,inactive,inactive,inactive,inactive,inactive,inactive,inactive,inactive,inactive,inactive,–
Cc1cc(O)c2c(c1)C(=O)c1cc(O)cc(O)c1C2=O,inactive,inactive,inactive,inactive,inactive,inactive,inactive,inactive,inactive,inactive,inactive,inactive,inactive,inactive,–
COc1cc(O)cc2c1C(=O)c1c(O)cc(C)cc1C2=O,inactive,inactive,inactive,inactive,inactive,inactive,inactive,inactive,inactive,inactive,inactive,inactive,inactive,inactive,–
COc1cc(C(=O)O)c2c(=O)c3c(O)cc(C)cc3oc2c1,inactive,inactive,inactive,inactive,inactive,inactive,inactive,inactive,inactive,inactive,inactive,inactive,inactive,inactive,–
COC(=O)c1cc(OC)cc(OC)c1C(=O)c1c(O)cc(C)cc1O,inactive,inactive,inactive,inactive,inactive,inactive,inactive,inactive,inactive,inactive,inactive,inactive,inactive,inactive,–
COc1cc(OC)c2c(c1)[C@@H]([C@@H]1c3cc(C)cc(O)c3C(=O)c3c(OC)cc(O)cc31)c1cc(C)cc(O)c1C2=O,–,–,–,–,–,–,–,–,–,–,–,–,–,–,Unstable
COc1cc(OC)c2c(c1)C(C1c3cc(C)cc(O)c3C(=O)c3c(OC)cc(OC)cc31)c1cc(C)cc(O)c1C2=O (stereo unspecified),–,–,–,–,–,–,–,–,–,–,–,–,–,–,Unstable
COC(=O)c1cc(C)c(C(=O)OC[C@@H](O)CO)c(OC)c1C(=O)c1c(C)cc(O)cc1O,–,inactive,–,–,–,inactive,–,–,–,–,–,–,inactive,inactive,–
Cc1cc(O)c2c(=O)c3c(C(=O)O)cc(O)cc3oc2c1,inactive,inactive,inactive,inactive,inactive,inactive,inactive,inactive,inactive,inactive,inactive,inactive,inactive,inactive,–
Cc1cc(=O)c2c(C)cc3cc(O)cc(O)c3c2o1,inactive,inactive,inactive,inactive,inactive,inactive,inactive,inactive,inactive,inactive,inactive,inactive,inactive,inactive,–
